# From publication PMC6426897, “Inhibition of NLRP3 inflammasome activation by cell-permeable stapled peptides” (Scientific Reports, 2019)
# Where a SMILES comes first, the peptide text is derived from it. Bridges are numbered along the chain shown (N, C = ends). [ ]: non-standard residue; d: D form. R8 = C=CCCCCCC[C@@](C)(N)C(=O)O; S5 = C=CCCC[C@](C)(N)C(=O)O
# Assays:
# NLRP3 inflammasome = assay: IL-1β release from THP-1 cells stimulated with LPS and nigericin (ELISA); format: cell-based, human; conditions: 10, 50 and 100 μM peptide for 4 hours, then LPS 4 hours, nigericin 1 hour; Fig. 6
# Method: We next examined whether the ASC peptides could inhibit IL-1β production, which is regulated by the inflammasome. We used THP-1 human monocytic cells to study inflammasome activation as they express high levels of NLRP3, ASC, and pro-casp-1. THP-1 cells were incubated with ms_ASC^PYD #1–6 or ms_NLRP3^PYD peptides at increasing concentrations for 4 hours and were then stimulated with LPS for 4 hours, followed by the NLRP3 activator nigericin for 1 hour. IL-1β levels were measured in the culture supernatant. […] The ms_ASC^PYD peptides reduced IL-1β production from THP-1 cells in response to LPS/nigericin stimulation to variable degrees (Fig. 6A). […] We decided to continue investigating in detail the inhibitory effects of ms_ASC^PYD #5 and #6 peptides, as their estimated binding energies matched well with the experimental data of suppression of ASC-dependent IL-1 release in a dose-dependent manner. Since ms_ASCPYD #6 is the shorter version of ms_ASCPYD #5, this selection also enabled us to verify the effect of varying peptide lengths.
# Human monocytic THP-1 cells (1 × 10^7 cells) were plated in a 10-cm tissue culture dish and treated with PMA (200 nM) overnight to differentiate monocytic cells into macrophages. Cells were then washed and allowed to rest in fresh media for another day. For stimulation, differentiated THP-1 cells were trypsinized and seeded in 96-well plates (2 × 10^6/well). Peripheral blood mononuclear cells were isolated by Ficoll-Hypaque density gradient centrifugation from buffy coats obtained from anonymous donors provided by the National University Hospital Blood Bank, Singapore. Isolation of monocytes was performed using negative selection with the Monocyte Isolation Kit II (Miltenyi Biotech), following the manufacturer’s instructions. Monocytes were plated in tissue culture non-treated 96-well plates (2.5 × 10^5/well) in 250 µl RPMI 1640-Glutamax media supplemented with 3% human AB serum (Gemini Bio Products).
# THP-1 cells and monocytes were incubated with NLRP3^PYD (12.5–25–50 μM), ASC^PYD #5 (12.5-25-50-100 μM) or ASC^PYD #6 (12.5-25-50-100 μM) for the indicated durations. Cells were then washed once with PBS and primed with E. coli LPS (0.1 μg/ml, Invivogen) for 4 h followed by stimulation with nigericin (10 μM) for an additional 1 h or ATP ([…]) for an additional 30 min. The cell culture supernatants were then collected and centrifuged at 500 × g to remove cells and cellular debris.
# IL-1β levels were measured using antibodies from eBioscience (cat. #14-7018-81 and #13-7016-85), following the manufacturer’s instructions. IL-18 levels were measured using antibodies from MBL (D044-3 and D045-6) following the manufacturer’s instructions. The absorbance was measured at 450 nm with the reference wavelength at 570 nm, using an M200 Infinite plate reader (Tecan).
# [1] = Circular dichroism, percentage of helicity (K2D3); format: physicochemical; conditions: CD, room temperature, water, 100 μM peptide; estimated with K2D3
# From the text: The conformation of helix 2 (^16TAEELKKFKLKLLSV^30) bound to ASC^PYD (Fig. 1A) was used as the starting structure for the peptide-protein interaction modeling. Following I,I + 7 stapling scheme, we inserted a hydrocarbon staple across positions 5 and 12 along the peptide and then introduced mutations to produce a set of stapled peptides. Two variants of the template peptide were designed – a short version containing 13 residues (ms_ASC^PYD #6) and a long version containing 15 residues (ms_ASC^PYD #1–5) with two additional residues at the N-terminus (Table 1). These two additional residues were inserted to increase the length of the peptide, thus potentially enabling sufficient conformational flexibility for the region involving the critical Arg3 to remain helical. A similar approach was taken to introduce the staple in the ms_NLRP3^PYD peptide. As determined from Circular Dichroism (CD) spectra, inserting the I,I + 7 staple had the intended effect of increasing helicity of the peptides (Fig. 3). […] Percentage of helicity was much higher for ASC^PYD stapled peptides #5 and #6, 95% and 70% respectively at 100 μM peptide concentration. Percentage of helicity for the peptides were estimated from the web server K2D3[36] using CD data.
# Figure 3 Circular dichroism (CD) spectra of (A) NLRP3^PYD and (B) ASC^PYD peptides to measure secondary structures.
# ASC PYD (Homo sapiens) = ASC PYD (Homo sapiens) (UniProt Q9ULZ3); assay: NMR titration; conditions: cited from earlier work
Percentage of helicity [1],Compound,IL-1β release (in words) (NLRP3 inflammasome),Kd (ASC PYD (Homo sapiens)) [µM]
,CC(=O)N[C@H](C(=O)N[C@@H](C)C(=O)N[C@@H](CCCNC(=N)N)C(=O)N[C@@H](CCC(=O)O)C(=O)N[C@]1(C)CCCCCCC=CCCC[C@@](C)(C(=O)N[C@@H](CCC(=O)O)C(=O)N[C@@H](CO)C(=O)N[C@H](C(N)=O)C(C)C)NC(=O)[C@H](CCCCN)NC(=O)[C@H](Cc2ccccc2)NC(=O)[C@H](CCCCN)NC(=O)[C@H](C)NC(=O)[C@H](CCCCN)NC(=O)[C@H](CCCCN)NC1=O)[C@@H](C)O [ms_ASC^PYD #2] (Ac-TARE[R8]KKAKFK[S5]ESV-NH2; staple 5-12),inability to suppress IL-1β release,
48%,CC(=O)N[C@H](C(=O)N[C@@H](CC(=O)O)C(=O)N[C@]1(C)CCCCCCC=CCCC[C@@](C)(C(=O)N[C@@H](CCC(=O)O)C(=O)N[C@@H](CC(=O)O)C(=O)N[C@@H](Cc2ccc(O)cc2)C(N)=O)NC(=O)[C@H](Cc2c[nH]cn2)NC(=O)[C@H](Cc2ccccc2)NC(=O)[C@H](CCCCN)NC(=O)[C@H](C)NC(=O)[C@H](CCCCN)NC(=O)[C@H](CCCCN)NC1=O)C(C)C [ms_NLRP3^PYD] (Ac-VD[R8]KKAKFH[S5]EDY-NH2; staple 3-10),produced less IL-1β in a dose-dependent manner,
,ASC PYD (from UniProt Q9ULZ3),,65
no helicity,Ac-VDLKKFKMHLEDY-NH2 [wt_NLRP3^PYD],,
